In general, inhibition refers to the drop in the measured response relative to a control, in per cent.

This note sets out measurements from patent US7144867B2, “Anticancer glycoside compounds” (priority 2004, dated 2006).

Assay [1] has as its system HUVEC (human umbilical vein endothelial cells). In words: Angiogenesis, tube formation on Matrigel. In kind it is cell-based. On the procedure:
(§1) Test Substance and Concentration.
Cell Line and Culture Media.
Evaluation of anti-proliferation for test substances. Matrigel matrix was thawed, kept on ice at 4° C. and 50 μL transferred to each well of a 96-microwell tissue culture plate. The plate was incubated at 37° C. for at least one hour to allow the matrix solution to solidify before treatment.
(§2) Aliquots of 200 μl of (HUVEC) suspension (about 1.5×10^4 cells/well) were placed in 96-well microtiter plate. Two microliters of compound test solution or vehicle (40% DMSO) was then added per well in duplicate and incubated at 5% CO2 at 37° C. for 18 hours. The final concentration of DMSO was 0.4%. […] Failure to form continuous networks between cell bodies in the presence of test substance was photographed and scored as to the extent of tube disruption at a magnification of 40×. […] The minimum inhibitory concentration (MIC) was calculated to assess the effect of the test substance on angiogenesis.

In assay [2] the test system is DLD-1 (human colon adenocarcinoma). The assay can be described thus: cells. Conditions: for Percent Growth (Mean ± SEM, n = 2): 72-hour. As for the experimental part: Test Substance and Concentration. Frondoside A (CBR-24) was dissolved in 100% DMSO and then diluted with sterile distilled water to obtain initial working solutions of 10000, 1000, 100, 10, and 1 μM in 40% DMSO. A 100-fold dilution was further made in culture media to generate final assay concentration of 100, 10, 1, 0.1 and 0.01 μM in 0.4% of DMSO.
Cell Line and Culture Media. The tumor cell line DLD-1 (human colon adenocarcinoma), obtained from American Type Culture Collection (ATCC CCL-221), was incubated in 95% air-5% CO2 gas mixture at 37° C. The culture medium used was RPMI 1640 with 10% fetal bovine serum, which was supplemented with 1% Antibiotic-Antimycotic.
(§3) Evaluation of anti-proliferation for test substances. Aliquots of 100 μl of cell suspension (about 2.5×10^3 cells/well) were placed in 96-well microtiter plates in an atmosphere of 5% CO2 at 37° C. […] Thus, the final concentration of DMSO was 0.4%. The Frondoside A was evaluated for possible inhibitory effects on cell proliferation at concentrations of 100, 10, 1, 0.1 and 0.01 μM. At the end of incubation, 20 μl of 90% alamarBlue reagent was added to each well for another 6 hour incubation before detection of cell viability by fluorescent intensity. Fluorescent intensity was measured using a Spectrafluor Plus plate reader with excitation at 530 nm and emission at 590 nm.
(§4) Determination of IC50, TGI and LC50. The measured results were calculated by the following formula: PG(%)=100%×(Mean Ftest−Mean Ftime0)/(Mean Fctrl−Mean Ftime0) If (Mean Ftest−Mean Ftime0)<0, then PG (%)=100%×(Mean Ftest−Mean Ftime0)/(Mean Ftime0−Mean Fblank) Where: • PG: percent growth • Mean Ftime0=The average of 2 measured fluorescent intensities of reduced alamarBlue at the time just before exposure of cells to the test substance. • Mean Ftest=The average of 2 measured fluorescent intensities of alamarBlue after 72-hour exposure of cells to the test substance. • Mean Fctrl=The average of 2 measured fluorescent intensities of alamarBlue after 72-hour incubation without the test substance. • Mean Fblank=The average of 2 measured fluorescent intensities of alamarBlue in medium without cells after 72-hour incubation.

The subject of assay [3] is PC-3 (human prostate adenocarcinoma). In words: cells. The settings on record: for Percent Growth (Mean ± SEM, n = 2): 72-hour. On the procedure: Test Substance and Concentration. Frondoside A (FAS) was dissolved in 100% DMSO and then diluted with sterile distilled water to obtain initial working solutions of 1000, 300, 100, 30, and 10 μM in 40% DMSO. […]
Cell Line and Culture Media. The tumor cell line PC-3 (human prostate adenocarcinoma), obtained from American Type Culture Collection (ATCC CRL-1435), was incubated in air atmosphere of 5% CO2 at 37° C. The culture medium used was F-12K Nutrient Mixture (Kaighn's Modification) with 3% fetal bovine serum, which was supplemented with 1% Antibiotic-Antimycotic.
as §3, with “of” for “of 100,”, “10, 3,” for “10,”, “1, 0.3 and” for “1,”, “0.1” for “0.1 and 0.01”, “6-hour” for “6 hour”
as §4, with “was” for “were”

The next assay relates to cancer cells. In words: Anti-cancer / apoptotic promoting activity, method not described.
Assay [4] deals with angiogenesis in the animal. In words: Treatment of animals, anti-angiogenic evaluation (Example 6). The settings on record: contemplated; range of appropriate doses. In kind it is in vivo. On the procedure: Frondoside A or B is evaluated for anti-angiogenic (e.g., for research, drug screening or therapeutic purposes) in live animals. Animals (e.g., having or modeling a disease characterized by unwanted angiogenesis) are treated with a range of appropriate doses of Frondoside A or B. Exemplary dosages and dosage schedules include, but are not limited to, those described herein.

Assay [5] has as its system HUVEC (human umbilical vein endothelial cells). The assay can be described thus: Angiogenesis, tube formation on Matrigel, Frondoside B (Example 5). The assay is classed as cell-based. The settings on record: concentrations in the range of 1 μM and greater; contemplated. On the procedure: as §1
Cell Line and Culture Media. […] The culture medium used is Endothelial Cell Growth Medium with 10% fetal bovine serum, which is supplemented with 1% Antibiotic-Antimycotic.
Evaluation of anti-proliferation for test substances. Matrigel matrix is thawed, kept on ice at 4° C. and 50 μL transferred to each well of a 96-microwell tissue culture plate. The plate is incubated at 37° C. for at least one hour to allow the matrix solution to solidify before treatment.
as §2, with “are” for “were”, “is” for “was”

≈ marks a conversion by molar mass, not a printed value.

As to `Cc1ccc(C(=O)Nc2ccc(S(=O)(=O)O)c3cc(S(=O)(=O)O)cc(S(=O)(=O)O)c23)cc1NC(=O)c1cccc(NC(=O)Nc2cccc(C(=O)Nc3cc(C(=O)Nc4ccc(S(=O)(=O)O)c5cc(S(=O)(=O)O)cc(S(=O)(=O)O)c45)ccc3C)c2)c1` [Suramin, reference compound], the “inhibition of tube formation, standard reference agent” value in assay [1] (10 μM) is “significant inhibition”. In addition, the inhibition at 0.3 µM in assay [1] (Homo sapiens, HUVEC, 0.3 μM, 18 hours, read-out: %, Inhibition of the total tube length (Mean ± SEM, n = 2)) was -1 ± 8%. Moreover, the inhibition at 1 µM in assay [1] (Homo sapiens, HUVEC, 1 μM, 18 hours, read-out: %, Inhibition of the total tube length (Mean ± SEM, n = 2)) is -1 ± 7%. Also, the inhibition at 3 µM in assay [1] (Homo sapiens, HUVEC, 3 μM, 18 hours, read-out: %, Inhibition of the total tube length (Mean ± SEM, n = 2)) was found to be 20 ± 8%. Moreover, the inhibition at 10 µM in assay [1] (Homo sapiens, HUVEC, 10 μM, 18 hours, read-out: %, Inhibition of the total tube length (Mean ± SEM, n = 2)) is 74%. For the same molecule, the inhibition at 30 µM in assay [1] (Homo sapiens, HUVEC, 30 μM, 18 hours, read-out: %, Inhibition of the total tube length (Mean ± SEM, n = 2)) is 100%. The “MIC (Minimum Inhibitory Concentration)” value in assay [1] (tube formation, significant inhibition ≧30%) worked out at 10 µM (≈ 13 µg/mL).
With `CO[C@@]12[C@H](COC(N)=O)C3=C(C(=O)C(C)=C(N)C3=O)N1C[C@@H]1N[C@@H]12` [Mitomycin, reference compound], the “Percent Growth (Mean ± SEM, n = 2)” value is listed as 96 ± 5% in assay [2] (DLD-1, 0.001 μM); 83 ± 8% in assay [2] (DLD-1, 0.01 μM); 66 ± 5% in assay [2] (DLD-1, 0.1 μM); 31 ± 4% in assay [2] (DLD-1, 1 μM); −11 ± 7% in assay [2] (DLD-1, 10 μM); 103 ± 1% in assay [3] (PC-3, 0.001 μM). Besides, the “Percent Growth (Mean ± SEM, n = 2)” value is 107 ± 1% in assay [3] (PC-3, 0.01 μM); 35 ± 0% in assay [3] (PC-3, 0.1 μM); 6 ± 1% in assay [3] (PC-3, 1 μM); −77 ± 2% in assay [3] (PC-3, 10 μM). The “TGI (Total Growth Inhibition)” value in assay [2] (DLD-1, semi-quantitative, nonlinear regression) stood at 5500 nM; in assay [3] (PC-3, semi-quantitative, nonlinear regression), 750 nM. Moreover, the IC50 in assay [2] (Homo sapiens, DLD-1, read-out: IC50 (50% Inhibition Concentration)) was determined as 330 nM; in assay [3] (Homo sapiens, read-out: IC50 (50% Inhibition Concentration)), 130 nM. Besides, the “activity of positive control on DLD-1 growth” value in assay [2] (at <10 μM) is recorded as “Significant activity”. Also, the “activity of standard reference agent on PC-3 growth” value in assay [3] (at <10 mM) is listed as “Significant activity”.
For the molecule “3 beta-O-{3-O-methyl-beta-D-glucopyranosyl-(1→3)-O-beta-D-6-sulfonatoglucopyranosyl-(1→4)-O-[beta-D-xylopyranosyl-(1→2)]-O-beta-D-quinovopyranosyl-(1→2)-O-beta-D-4-sulfonatoxylopyranosyl}-holost-7-ene sodium (or potassium) salt [Frondoside B]”, the anti-cancer activity result in the assay on cancer cells (no test described) is “showed anti-cancer activity”. The “apoptotic promoting activity in cancer cells” value with cancer cells (no test described for Frondoside B) was “apoptotic promoting activity”. The “angiogenesis in the animal” value in assay [4] is listed as “inhibits angiogenesis”. The “inhibition of tube formation relative to the vehicle-treated controls” value in assay [5] was “significant inhibition of tube formation”.
